According to patent US11891359B2, “Prenylated psilocybin derivatives and methods of using” (ENVERIC B[…] INC., priority 2021, dated 2024):

Assay: Solubility in the one-pot biocatalysis reaction mixture
Assay type: physicochemical
Conditions: undiluted one-pot biocatalysis reaction mixture (5 mL), 30 °C, aqueous buffer; undiluted 5 mL reaction (25 mM Tris-HCl pH 8.0); dilution to 40 mL and pH 6 increased solubility
Procedure: Referring further to FIG. 13A, Step 1 was conducted in vitro using biocatalytic conversion. Three recombinant enzymes, the prenyl transferase PriB (SEQ.ID NO: 24), in addition to PhoNxt (SEQ.ID NO: 30), and IPKmt (SEQ.ID NO: 32) were individually expressed in E. coli using the following plasmids, respectively: pET26b(+)-PriB, pET28a(+)-IPKmt, and pET21(+)-PhoNxt. Prenyl transferase PriB (SEQ.ID NO: 24) catalyzes the stereospecific 6-prenylation of tryptophan with dimethylallyl pyrophosphate (DMAPP) as the prenyl-donor. A cDNA encoding PriB enzyme (SEQ.ID NO: 23) was synthesized and cloned into pET26b(+) vector by service provider GenScript (www.genscript.com) in-frame with a vector-encoded, N-terminal HIS epitope tag. PhoNxt (SEQ.ID NO: 30) is a non-specific acid phosphatase, while IPKmt (SEQ.ID NO: 32) is an isopentenyl phosphate kinase. Together, these two enzymes can use dimethylallyl alcohol (DMAOH) (www.sigmaaldrich.com) as the starting substrate to produce DMAPP, which in turn is a required co-substrate for PriB. cDNAs encoding IPkmt (SEQ.ID NO: 31) and PhoNxt (SEQ.ID NO: 29) were synthesized and cloned into E.coli expression vectors pET28a(+) and pET21(+), respectively using the Clonal Genes service of Twist Bioscience. Specifically, IPKmt was cloned between the NdeI and XhoI sites of pET28a(+) thus enabling an in-frame, N-terminal HIS tag in the corresponding protein. […]

CC(C)=CCc1ccc2c(C[C@H](N)C(=O)O)c[nH]c2c1 [6-dimethylallyl-tryptophan]
solubility: < 1100 µg/mL
